From patent publication US20230021483A1, “[…] […] METHOD AND CLASSIFICATION OF PHARMACEUTICAL COMPONENTS BY USING TRANSCRIPTOMES” (National Institutes of Biomedical Innovation, Health and …, priority 2016, published 2023)

Tested on: preferentially upregulated genes in LV, SP, LN
Experiment: Z-score-based differential gene expression analysis (adjuvant group- or adjuvant-associated genes, 40 module mapping, TargetMine annotation)
Format: in vivo, C57BL/6 mice
Conditions: for Adar 1425405_a_at (Group G1, Modules 20) / Adar 1434268_at (Group G1, Modules 20) / Ddx58 1436562_at (Group G1, Modules 20) / Ddx58 1456890_at (Group G1, Modules 20) / Eif2ak2 1422005_at (Group G1, Modules 20) / G3bp2 1421323_a_at (Group G1, Modules 20) / Gm9706///Isg15 1431591_s_at (Group G1, Modules 20) / H2-T10///H2-T22///H2-T9 1449875_s_at (Group G1, Modules 20) / Ifih1 1426276_at (Group G1, Modules 20) / Ifit1 1450783_at (Group G1, Modules 20) / Ifit3 1449025_at (Group G1, Modules 20) / Irf7 1417244_a_at (Group G1, Modules 20) / Irgm1 1418825_at (Group G1, Modules 20) / Mndal 1426906_at (Group G1, Modules 20) / Pml 1448757_at (Group G1, Modules 20) / Pml 1456103_at (Group G1, Modules 20) / Rnf213 1455500_at (Group G1, Modules 20) / Rsad2 1436058_at (Group G1, Modules 20) / Shisa5 1423986_a_at (Group G1, Modules 20) / Shisa5 1437503_a_at (Group G1, Modules 20) / Stat1 1450033_a_at (Group G1, Modules 20) / Stat1 1450034_at (Group G1, Modules 20) / Tdrd7 1426716_at (Group G1, Modules 20) / Tor1aip2 1418115_s_at (Group G1, Modules 20) / Tor1aip2 1418116_at (Group G1, Modules 20) / Tor1aip2 1435526_at (Group G1, Modules 20) / Trim12a 1437432_a_at (Group G1, Modules 20) / Uba7 1426970_a_at (Group G1, Modules 20): LV
Excerpt: Each sample's FC value was converted into a z-score on a gene basis by using the entire data set for each organ. The Z-score of the triplicates of interest were summed for each adjuvant. For example, the three sample z-score in the LV sample following cdiGMP administration was summed on a gene-by-gene basis, after which the summed scores of >3 genes were selected as relatively preferentially expressed genes in the LV after cdiGMP administration. The following threshold was applied for selections. […] G2^LV: ALM_IP(z>1) & bCD(z>1) & ENDCN(z>1) & FCA(z>1). […] G4^LV: MALP2s(z>3). […] G2^SP: ENDCN_x2+ENDCN_x3(z>2) & ALM_IP(z>3) & bCD(z>3). […] G4^SP: ADX_ID_x2+ADX_ID_x3(z>2) & ADX_IP(z>3) & MALP2s(z>3). […] G2^LN: bCD(z>3) & FCA(z>3). […] G5^LN: K3(z>1.5) & K3SPG_x1+K3SPG_x2(z>1) & D35_x1+D35_x3(z>1). G6^LN: AddaVax(z>3).

Substance: K3: B class CpG ODN (ATCGACTCTCGAGCGTTCTC), TLR9 ligand (chemistry not given here)
- z sum, 1444615_x_at Runx1t1 (ID, LN, Module#(LN) 1): −2.11
- z sum, 1420894_at Tgfbr1 (ID, LN, Module#(LN) 3): −2.14
- z sum, 1460069_at Smc6 (ID, LN, Module#(LN) 7): −3.53
- z sum, 1440371_at --- (ID, LN, Module#(LN) 8): −1.24
- z sum, 1456346_at --- (ID, LN, Module#(LN) 9): −2.13
- z sum, 1425105_at Rbp3 (ID, LN, Module#(LN) 10): −2.11
- z sum, 1455796_x_at Olfm1 (ID, LN, Module#(LN) 11): −1.44
- z sum, 1443302_at --- (ID, LN, Module#(LN) 12): −2.78
- z sum, 1442518_at C030044O21Rik (ID, LN, Module#(LN) 14): −1.58
- z sum, 1419486_at Foxc1 (ID, LN, Module#(LN) 19): −0.76
- z sum, 1441344_at Erlin1 (ID, LN, Module#(LN) 21): −2.63
- z sum, 1423611_at Alpl (ID, LN, Module#(LN) 24): −1
- z sum, 1448179_at Usmg5 (ID, LN, Module#(LN) 24): −2.02
- z sum, 1458457_at --- (ID, LN, Module#(LN) 26): −0.33
- z sum, 1450377_at Thbs1 (ID, LN, Module#(LN) 28): −2.87
- z sum, 1443853_x_at Sfmbt1 (ID, LN, Module#(LN) 32): −2.59
- z sum, 1443392_at Trpv1 (ID, LN, Module#(LN) 33): −1.04
- z sum, 1440475_at AW011738 (ID, LN, Module#(LN) 36): −2.36
- z sum, 1416380_at Mov10 (ID, LN, Module#(LN) 37): −2.43
- z sum, 1421008_at Rsad2 (ID, LN, Module#(LN) 37): −1.42
- z sum, 1421009_at Rsad2 (ID, LN, Module#(LN) 37): −0.76
- z sum, 1424339_at Oasl1 (ID, LN, Module#(LN) 37): −0.5
- z sum, 1426013_s_at Plekha4 (ID, LN, Module#(LN) 37): −1.53
- z sum, 1436058_at Rsad2 (ID, LN, Module#(LN) 37): −0.71
- z sum, 1436472_at Slfn9 (ID, LN, Module#(LN) 37): −2
- z sum, 1447241_at --- (ID, LN, Module#(LN) 37): −2.6
- z sum, 1416039_x_at Cyr61 (ID, LN, Module#(LN) 39): −1.58
- z sum, 1418191_at Usp18 (ID, LN, Module#(LN) 40): −0.03
- z sum, 1418293_at Ifit2 (ID, LN, Module#(LN) 40): −0.49
- z sum, 1418580_at Rtp4 (ID, LN, Module#(LN) 40): −1
- z sum, 1419603_at Ifi204 (ID, LN, Module#(LN) 40): −1.28
- z sum, 1421911_at Stat2 (ID, LN, Module#(LN) 40): −0.43
- z sum, 1422006_at Eif2ak2 (ID, LN, Module#(LN) 40): −1.95
- z sum, 1422141_s_at Csprs///Gm15433///Gm2666///Gm7609///LOC100041903///LOC100503923 (ID, LN, Module#(LN) 40): −1.36
- z sum, 1423555_a_at Ifi44 (ID, LN, Module#(LN) 40): −1.43
- z sum, 1424444_a_at 1600014C10Rik (ID, LN, Module#(LN) 40): −0.85
- z sum, 1424607_a_at Gm4354 (ID, LN, Module#(LN) 40): −0.89
- z sum, 1424609_a_at Cwc22///Gm4354///Xdh (ID, LN, Module#(LN) 40): −2.76
- z sum, 1431095_a_at Herc6 (ID, LN, Module#(LN) 40): −0.73
- z sum, 1432417_a_at Tspan2 (ID, LN, Module#(LN) 40): −2.15
- z sum, 1439886_at --- (ID, LN, Module#(LN) 40): −1.19
- z sum, 1450403_at Stat2 (ID, LN, Module#(LN) 40): −1.07
- z sum, 1451777_at Ddx60 (ID, LN, Module#(LN) 40): 0.163
- z sum, 1452349_x_at Ifi205///Mnda (ID, LN, Module#(LN) 40): −1.48
- z sum, 1453196_a_at Oasl2 (ID, LN, Module#(LN) 40): −1.27
- z sum, 1453299_a_at Pnp///Pnp2 (ID, LN, Module#(LN) 40): −0.78
- z sum, 1453757_at Herc6 (ID, LN, Module#(LN) 40): −0.2
- z sum, 1456164_at AW011738 (ID, LN, Module#(LN) 40): −2.08
- z sum, 1457035_at Al607873 (ID, LN, Module#(LN) 40): −0.26
- Adar 1425405_a_at (Group G1, Modules 20) (ID, sample x1): −0.3
- Adar 1434268_at (Group G1, Modules 20) (ID, sample x1): −0.6
- Ddx58 1436562_at (Group G1, Modules 20) (ID, sample x1): −0.3
- Ddx58 1456890_at (Group G1, Modules 20) (ID, sample x1): −0.4
- Eif2ak2 1422005_at (Group G1, Modules 20) (ID, sample x1): −0.5
- G3bp2 1421323_a_at (Group G1, Modules 20) (ID, sample x1): −0.4
- Gm9706///Isg15 1431591_s_at (Group G1, Modules 20) (ID, sample x1): −0.5
- H2-T10///H2-T22///H2-T9 1449875_s_at (Group G1, Modules 20) (ID, sample x1): −0.3
- Ifih1 1426276_at (Group G1, Modules 20) (ID, sample x1): −0.4
- Ifit1 1450783_at (Group G1, Modules 20) (ID, sample x1): −0.5
- Ifit3 1449025_at (Group G1, Modules 20) (ID, sample x1): −0.5
- Irf7 1417244_a_at (Group G1, Modules 20) (ID, sample x1): −0.4
- Irgm1 1418825_at (Group G1, Modules 20) (ID, sample x1): −0.5
- Mndal 1426906_at (Group G1, Modules 20) (ID, sample x1): −0.3
- Pml 1448757_at (Group G1, Modules 20) (ID, sample x1): −0.4
- Pml 1456103_at (Group G1, Modules 20) (ID, sample x1): −0.5
- Rnf213 1455500_at (Group G1, Modules 20) (ID, sample x1): −0.5
- Rsad2 1436058_at (Group G1, Modules 20) (ID, sample x1): −0.5
- Shisa5 1423986_a_at (Group G1, Modules 20) (ID, sample x1): −0.5
- Shisa5 1437503_a_at (Group G1, Modules 20) (ID, sample x1): −0.5
- Stat1 1450033_a_at (Group G1, Modules 20) (ID, sample x1): −0.5
- Stat1 1450034_at (Group G1, Modules 20) (ID, sample x1): −0.4
- Tdrd7 1426716_at (Group G1, Modules 20) (ID, sample x1): −0.3
- Tor1aip2 1418115_s_at (Group G1, Modules 20) (ID, sample x1): −0.3
- Tor1aip2 1418116_at (Group G1, Modules 20) (ID, sample x1): −0.4
- Tor1aip2 1435526_at (Group G1, Modules 20) (ID, sample x1): −0.4
- Trim12a 1437432_a_at (Group G1, Modules 20) (ID, sample x1): −0.6
- Uba7 1426970_a_at (Group G1, Modules 20) (ID, sample x1): −0.2
- Adar 1425405_a_at (Group G1, Modules 20) (ID, sample x2): −0.7
- Adar 1434268_at (Group G1, Modules 20) (ID, sample x2): −0.5
- Ddx58 1436562_at (Group G1, Modules 20) (ID, sample x2): −0.4
- Ddx58 1456890_at (Group G1, Modules 20) (ID, sample x2): −0.4
- Eif2ak2 1422005_at (Group G1, Modules 20) (ID, sample x2): −0.5
- G3bp2 1421323_a_at (Group G1, Modules 20) (ID, sample x2): −0.5
- Gm9706///Isg15 1431591_s_at (Group G1, Modules 20) (ID, sample x2): −0.5
- H2-T10///H2-T22///H2-T9 1449875_s_at (Group G1, Modules 20) (ID, sample x2): −0.5
- Ifih1 1426276_at (Group G1, Modules 20) (ID, sample x2): −0.4
- Ifit1 1450783_at (Group G1, Modules 20) (ID, sample x2): −0.5
- Ifit3 1449025_at (Group G1, Modules 20) (ID, sample x2): −0.5
- Irf7 1417244_a_at (Group G1, Modules 20) (ID, sample x2): −0.4
- Irgm1 1418825_at (Group G1, Modules 20) (ID, sample x2): −0.6
- Mndal 1426906_at (Group G1, Modules 20) (ID, sample x2): −0.3
- Pml 1448757_at (Group G1, Modules 20) (ID, sample x2): −0.6
- Pml 1456103_at (Group G1, Modules 20) (ID, sample x2): −0.6
- Rnf213 1455500_at (Group G1, Modules 20) (ID, sample x2): −0.5
- Rsad2 1436058_at (Group G1, Modules 20) (ID, sample x2): −0.5
- Shisa5 1423986_a_at (Group G1, Modules 20) (ID, sample x2): −0.5
- Shisa5 1437503_a_at (Group G1, Modules 20) (ID, sample x2): −0.3
- Stat1 1450033_a_at (Group G1, Modules 20) (ID, sample x2): −0.5
- Stat1 1450034_at (Group G1, Modules 20) (ID, sample x2): −0.5
- Tdrd7 1426716_at (Group G1, Modules 20) (ID, sample x2): −0.6
- Tor1aip2 1418115_s_at (Group G1, Modules 20) (ID, sample x2): −0.3
- Tor1aip2 1418116_at (Group G1, Modules 20) (ID, sample x2): −0.5
- Tor1aip2 1435526_at (Group G1, Modules 20) (ID, sample x2): −0.5
- Trim12a 1437432_a_at (Group G1, Modules 20) (ID, sample x2): −0.5
- Uba7 1426970_a_at (Group G1, Modules 20) (ID, sample x2): −0.3
- Adar 1425405_a_at (Group G1, Modules 20) (IP, sample x1): −0.5
- Adar 1434268_at (Group G1, Modules 20) (IP, sample x1): −0.6
- Ddx58 1436562_at (Group G1, Modules 20) (IP, sample x1): −0.5
- Ddx58 1456890_at (Group G1, Modules 20) (IP, sample x1): −0.4
